The source of these data is ChEMBL document CHEMBL1129601, “Inhibitors of acyl-CoA: cholesterol O-acyl transferase (ACAT) as hypocholesterolemic agents. CI-1011: an acyl sulfamate with unique cholesterol-lowering activity in animals fed noncholesterol-supplemented diets” (J Med Chem, 1996).

Holding throughout (type): ADME
The nature of series [1]: Solution Degradation Studies measured by compound unchanged at pH 6.4 = 50% water / 50% acetonitrile at 2 hours. The conditions noted are these: 50% water / 50% acetonitrile solution, read-out: Unchanged.
Series [2] is described as follows: Solution Degradation Studies measured by compound unchanged at pH 6.4 = 50% water / 50% acetonitrile at 4 hours. The conditions noted are these: 50% water / 50% acetonitrile solution, read-out: Unchanged.
A short description of series [3]: Solution Degradation Studies measured by compound unchanged at pH 6.4 = 50% water / 50% acetonitrile at 0 hours. The note with it: 50% water / 50% acetonitrile solution, read-out: Unchanged.
A short description of series [4]: Solution Degradation Studies measured by compound unchanged at pH 0.4=50% 1 M HCl/50% acetonitrile at 24 hours. The conditions noted are these: 50% 1 M HCl / 50% acetonitrile solution, read-out: Unchanged.
Series [5] can be described thus: Solution Degradation Studies measured by compound unchanged at pH 6.4 = 50% water / 50% acetonitrile at 24 hours. The note with it: 50% water / 50% acetonitrile solution, read-out: Unchanged.
The nature of series [6]: Solution Degradation Studies measured by compound unchanged at pH 0.4=50% 1 M HCl/50% acetonitrile at 8 hours. The note with it: 50% 1 M HCl / 50% acetonitrile solution, read-out: Unchanged.
The nature of series [7]: Solution Degradation Studies measured by compound unchanged at pH 0.4=50% 1 M HCl/50% acetonitrile at 2 hours. The conditions noted are these: 50% 1 M HCl / 50% acetonitrile solution, read-out: Unchanged.
A short description of series [8]: Solution Degradation Studies measured by compound unchanged at pH 0.4=50% 1 M HCl/50% acetonitrile at 4 hours. The note with it: 50% 1 M HCl / 50% acetonitrile solution, read-out: Unchanged.
Series [9] in a line: Solution Degradation Studies measured by compound unchanged at pH 0.4=50% 1 M HCl/50% acetonitrile at 0 hours. The note with it: 50% 1 M HCl / 50% acetonitrile solution, read-out: Unchanged.
A short description of series [10]: Solution Degradation Studies measured by compound unchanged at pH 6.4 = 50% water / 50% acetonitrile at 8 hours. The conditions noted are these: 50% water / 50% acetonitrile solution, read-out: Unchanged.
Series [11] is described as follows: Solution Degradation Studies measured by compound unchanged at pH 0.4=50%1 M HCl/50% acetonitrile at 4 hours. The note with it: 50% 1 M HCl / 50% acetonitrile solution, read-out: Unchanged.
A short description of series [12]: Solution Degradation Studies measured by compound unchanged at pH 0.4=50%1 M HCl/50% acetonitrile at 8 hours. The conditions noted are these: 50% 1 M HCl / 50% acetonitrile solution, read-out: Unchanged.
Series [13] is described as follows: Solution Degradation Studies measured by compound unchanged at pH 0.4=50%1 M HCl/50% acetonitrile at 24 hours. The conditions noted are these: 50% 1 M HCl / 50% acetonitrile solution, read-out: Unchanged.
Series [14] is described as follows: Solution Degradation Studies measured by compound unchanged at pH 0.4=50%1 M HCl/50% acetonitrile at 2 hours. The note with it: 50% 1 M HCl / 50% acetonitrile solution, read-out: Unchanged.
A short description of series [15]: Solution Degradation Studies measured by compound unchanged at pH 0.4=50%1 M HCl/50% acetonitrile at 0 hours. The conditions noted are these: 50% 1 M HCl / 50% acetonitrile solution, read-out: Unchanged.

Take `Cc1cccc(C)c1OC(=O)NS(=O)(=O)Oc1c(C(C)C)cccc1C(C)C`: the remaining at 2 h in series [1] stood at 79%; in series [7] it was 71%. The remaining at 4 h came to 65% in [2] and 57% in series [8]. Besides, the remaining at 0 h in series [3] amounted to 94%; in series [9] it was 93%. Also, the remaining at 24 h was found to be 5% in [4] and 20% in [5]. Further, the remaining at 8 h in [6] was determined as 37%; in [10], 48%.

`CC(C)c1cccc(C(C)C)c1OC(=O)NS(=O)(=O)Oc1c(C(C)C)cccc1C(C)C` [listing 1 of 2 here]: the remaining at 2 h in series [1] was 100%; in [14], 92%. Further, the remaining at 4 h was 100% in series [2] and 83% in series [11]. The remaining at 0 h in series [3] and in [15] was 100% each time. Besides, the remaining at 8 h in series [12] was 68%; in series [10], 100%. In addition, the values for the remaining at 24 h in [13] and in series [5] were 25% and 100%, respectively.

As for `CC(C)c1cccc(C(C)C)c1OS(=O)(=O)NC(=O)Oc1c(C(C)(C)C)cccc1C(C)(C)C`, the remaining at 2 h in [1] and in [7] was 100% throughout. The remaining at 4 h in [2] and in [8] was 99% in each case. Besides, the remaining at 0 h in series [3] and in series [9] was 100% each time. Also, the remaining at 24 h was found to be 97% in series [4] and 98% in series [5]. In addition, the remaining at 8 h in series [6] is 98%; in series [10], 99%.

In the case of `CC(C)c1cccc(C(C)C)c1OC(=O)NS(=O)(=O)Oc1c(C(C)C)cccc1C(C)C` [listing 2 of 2 here], the results for the remaining at 2 h in series [1] and in series [7] were 87% and 88%, respectively. Also, the values for the remaining at 4 h in [2] and in series [8] were 85% and 80%, respectively. Further, the remaining at 0 h in series [3] and in [9] was 95% in each case. Besides, the remaining at 24 h turned out to be 23% in series [4] and 37% in series [5]. The remaining at 8 h in series [6] is 66%; in [10], 74%.
